Assay results: patent US20180186796A1, “COMPOUNDS AND USES THEREOF” (LEAD DISCOVERY SIENA S.R.L., priority 2014, published 2018)
In brackets after ≈: the same amount, converted by molar mass. Like-named read-outs stand apart in the source and are kept apart here.

Key:
Water solubility assay = conditions: for solubility at 24 h / solubility thermodynamic at 24 h: water, 20 °C, thermodynamic from solid; for H2O Solubility: Table 6
PAMPA, BBB permeability = conditions: for PAMPA BBB (MR %): Membrane Retention; for Papp at 5 h, 0.5 mM: PAMPA, pH 7.4
Description: (§1) Donor solution (0.5 mM) was prepared by diluting 1 mM dimethylsulfoxide (DMSO) compound stock solution using phosphate buffer (pH 7.4, 0.025 M). […] Donor solution (150 μL) was added to each well of the filter plate. To each well of the acceptor plate were added 300 μL of solution (50% DMSO in phosphate buffer). All compounds were tested in three different plates on different days. The sandwich was incubated for 5 h at room temperature under gentle shaking. After the incubation time, the plates were separated, and samples were taken from both receiver and donor sides and analyzed using LC with UV detection at 280 nm.
(§2) Permeability (Papp) for PAMPA was calculated according to the following equation, obtained from Wohnsland and Faller^27 and Sugano et al.^28 equation with some modification in order to obtain permeability values in cm s^−1,
(§3) Drug concentration is estimated by using the peak area integration. Membrane retentions (%) were calculated according to the following equation:
(§4) where r is the ratio between drug concentration in the acceptor and equilibrium concentration, D, A, and Eq represented drug concentration in the donor, acceptor and equilibrium solution, respectively.
(§5) Donor solution of tested compounds (0.5 mM) was prepared by diluting 1 mM dimethylsulfoxide (DMSO) compound stock solution using phosphate buffer (pH 7.4, 25 mM). […] Donor solution (150 μL) was added to each well of the filter plate. To each well of the acceptor plate were added 300 μL of solution (50% DMSO in phosphate buffer). Compounds was tested in three different plates on different days. The sandwich was incubated for 5 h at room temperature under gentle shaking.
(§6) Permeability (Papp) for PAMPA was calculated according to the following equation, obtained from Wohnsland and Faller and Sugano et al.^27, 28.
(§7) Drug concentration is estimated by using the peak area integration. Membrane retention (%) was calculated according to the following equation:

[1] = Microsomal stability assay; conditions: for Metabolic Stab. %: percentage of unmodified drug, Table 8; for Metabolic Stab.: percentage of unmodified parent drug, human liver microsomes 60 min
[2] = PAMPA, intestinal (GI) permeability; conditions: for PAMPA GI (MR %): Membrane Retention; for Papp at 5 h, 0.5 mM / Papp: PAMPA; for Papp at 5 h, 0.5 mM: pH 7.4; for Papp: Table 6
Description: as §1, §2, §3, §4, §5, §6, §7

recombinant Fyn = recombinant Fyn (Homo sapiens, UniProt P06241); assay: Enzymatic assay on isolated Fyn kinase
Description: Kinase assays were performed in presence of 200 μM ATP and 100 μM peptide substrate. All inhibition assays were conducted with 0.01 μg active kinase, 0.33 μmol [^γ32P]ATP, 60 mM HEPES-NaOH pH 7.5, 3 μM Na-orthovanadate, 1.2 mM DTT, 50 μg/ml PEG20.0000, 10 mM magnesium acetate, 0.004% NP40 and 10% DMSO in a final volume of 10 μL. Fyn and inhibitors were preincubated in ice for 5 min; after addition of the substrates the reaction was conducted at 30° C. for 10 min. The reaction was stopped by adding 5 μL of 3% phosphoric acid. Aliquots (10 μL) were then transferred into a P30 Filtermat (PerkinElmer), washed five times with 75 mM phosphoric acid and once with acetone for 5 minute. The filter was dried and transferred to a sealable plastic bag, and scintillation cocktail (4 mL) was added. Spotted reactions were read in a MicroBeta Liquid (Perkinelmer) scintillation counter. The ID50 values were obtained according to the following equation:
Ki values toward recombinant Fyn were calculated using the equation:
according to a competitive mechanism of inhibition toward ATP substrate, where [SATP] is the concentration of ATP. Curve fitting was performed with the program GraphPad Prism version 5.00.

Recombinant human Src = molecular target: T1, Recombinant human Src (Homo sapiens, UniProt P12931); assay: Enzymatic assay on isolated Src; format: biochemical
T1 construct: purchased Upstate (Lake Placid, N.Y.)
Excerpt: Recombinant human Src was purchased from Upstate (Lake Placid, N.Y.).

[3] = Stability tests in phosphate buffer and methanol; format: physicochemical; conditions: 20° C., 48 h incubation
[4] = Enzymatic stability in human plasma; format: in vitro ADME; conditions: human, pooled human plasma diluted with phosphate buffer, pH 7.4; 37° C.; read-out: Stability Human Plasma t1/2 (converted)
[5] = read-out: Enzymatic Data (Ki, μM) Fyn
[6] = mean of at least two experiments, read-out: Enzymatic Data (Ki, μM) c-Src

T1 sequence (P12931 whole entry): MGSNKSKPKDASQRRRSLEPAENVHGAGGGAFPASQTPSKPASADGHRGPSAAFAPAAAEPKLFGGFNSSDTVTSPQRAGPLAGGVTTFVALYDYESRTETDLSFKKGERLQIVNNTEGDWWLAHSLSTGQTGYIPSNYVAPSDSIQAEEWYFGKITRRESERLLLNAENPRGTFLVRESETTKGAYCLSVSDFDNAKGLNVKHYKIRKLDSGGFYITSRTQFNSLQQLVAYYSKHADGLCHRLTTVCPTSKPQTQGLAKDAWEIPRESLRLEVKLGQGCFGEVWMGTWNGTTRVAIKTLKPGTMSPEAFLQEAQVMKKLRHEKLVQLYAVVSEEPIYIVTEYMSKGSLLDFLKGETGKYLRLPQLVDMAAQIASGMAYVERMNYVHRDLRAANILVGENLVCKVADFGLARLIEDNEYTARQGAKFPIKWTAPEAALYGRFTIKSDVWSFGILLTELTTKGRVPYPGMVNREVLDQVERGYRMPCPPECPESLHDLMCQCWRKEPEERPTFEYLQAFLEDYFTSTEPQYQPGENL
Sequence of recombinant Fyn (P06241 whole entry, looked up): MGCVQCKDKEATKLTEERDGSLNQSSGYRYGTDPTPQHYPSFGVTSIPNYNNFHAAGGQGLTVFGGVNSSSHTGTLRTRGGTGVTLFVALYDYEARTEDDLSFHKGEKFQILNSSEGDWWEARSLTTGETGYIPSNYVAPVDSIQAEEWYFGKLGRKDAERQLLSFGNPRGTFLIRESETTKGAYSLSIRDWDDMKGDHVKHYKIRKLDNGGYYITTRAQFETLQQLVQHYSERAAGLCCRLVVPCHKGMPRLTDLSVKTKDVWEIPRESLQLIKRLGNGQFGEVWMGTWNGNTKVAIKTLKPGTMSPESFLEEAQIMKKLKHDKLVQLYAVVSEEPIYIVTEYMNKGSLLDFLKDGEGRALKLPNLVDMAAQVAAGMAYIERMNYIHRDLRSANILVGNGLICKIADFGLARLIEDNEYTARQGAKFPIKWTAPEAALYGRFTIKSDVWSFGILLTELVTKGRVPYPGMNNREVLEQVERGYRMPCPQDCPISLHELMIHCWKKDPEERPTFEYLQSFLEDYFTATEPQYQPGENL

CSc1nc(NCCc2ccccc2)c2cnn(CC(Cl)c3ccccc3)c2n1 (stereo not shown) [Si35, 1-(2-chloro-2-phenylethyl)-6-(methylthio)-N-phenethyl-1H-pyrazolo[3,4-d]pyrimidin-4-amine]
solubility at 24 h (Water solubility assay): 0.166 µM (≈ 0.0704 µg/mL) | solubility thermodynamic at 24 h (Water solubility assay): 0.07 µg/mL (≈ 0.165 µM) | PAMPA BBB (MR %) (PAMPA, BBB permeability): (24.5) % | Papp at 5 h, 0.5 mM (PAMPA, BBB permeability): 6.17 ×10⁻⁶ cm/s | Metabolic Stab. % [1]: 96.2% | PAMPA GI (MR %) [2]: (33.0) % | Papp at 5 h, 0.5 mM [2]: 7.4 ×10⁻⁶ cm/s

CSc1nc(NCCc2cccc(Cl)c2)c2cnn(/C=C/c3ccccc3)c2n1 [drawing 198]
Ki (recombinant Fyn; [5]): 16 µM

OCCNc1nc(NCc2ccccc2)c2cnn(/C=C/c3ccccc3)c2n1 [Si74, 2-(4-benzylamino-1-styryl-1H-pyrazolo[3,4-d]pyrimidin-6-ylamino)-ethanol]
Ki (recombinant Fyn; read-out: Ki Fyn): 1.15 µM

CC(C)Sc1nc(Nc2cccc(F)c2)c2cnn(CC(Cl)c3ccccc3)c2n1 (stereo not shown)
Ki (Recombinant human Src; [6]): 0.26 µM

COC(Cn1nc(-c2ccccc2)c2c(N)nc(SC)nc21)c1ccccc1 (stereo not shown)
Ki (recombinant Fyn): > 10 µM

CC(C)Sc1nc(Nc2ccccc2)c2cnn(CC(Cl)c3ccccc3)c2n1 (stereo not shown)
Ki (Recombinant human Src; [6]): 0.3 µM

CSc1nc(Nc2cccc(Cl)c2)c2cnn(CC(Cl)c3ccccc3)c2n1 (stereo not shown) [Si83, 1-(2-chloro-2-phenylethyl)-N-(3-chlorophenyl)-6-(methylthio)-1H-pyrazolo[3,4-d]pyrimidin-4-amine]
solubility at 24 h (Water solubility assay): 0.295 µM (≈ 0.127 µg/mL) | solubility thermodynamic at 24 h (Water solubility assay): 0.13 µg/mL (≈ 0.302 µM) | PAMPA BBB (MR %) (PAMPA, BBB permeability): (39.6) % | Papp at 5 h, 0.5 mM (PAMPA, BBB permeability): 3.14 ×10⁻⁶ cm/s | Metabolic Stab. % [1]: 91.1% | PAMPA GI (MR %) [2]: (69.9) % | Papp at 5 h, 0.5 mM [2]: 0.26 ×10⁻⁶ cm/s

CSc1nc(N(C(=O)OCCN2CCN(C)CC2)c2cccc(Cl)c2)c2cnn(CC(Cl)c3ccccc3)c2n1 (stereo not shown) [proSi83, 2-(4-Methylpiperazin-1-yl)ethyl (1-(2-chloro-2-phenylethyl)-6-(methylthio)-1H-pyrazolo[3,4-d]pyrimidin-4-yl)(3-chlorophenyl)carbamate]
half-life at 500 μM ([3]; methanol, read-out: Stability MeOH t1/2): > 48 h | half-life at 500 μM ([3]; phosphate buffer, pH 7.4, read-out: Stability PBS pH 7.4 t1/2): > 48 h | half-life at 100 μM [4]: 3.28 h | solubility at 24 h (Water solubility assay): 7.08 µM (≈ 4.25 µg/mL) | solubility thermodynamic at 24 h (Water solubility assay): 4.22 µg/mL (≈ 7.03 µM) | PAMPA BBB (MR %) (PAMPA, BBB permeability): (47.0) % | Papp at 5 h, 0.5 mM (PAMPA, BBB permeability): 4.14 ×10⁻⁶ cm/s | PAMPA GI (MR %) [2]: (44.7) % | Papp at 5 h, 0.5 mM [2]: 4.95 ×10⁻⁶ cm/s

CC(C)Sc1nc(Nc2cccc(Br)c2)c2cnn(CC(Cl)c3ccccc3)c2n1 (stereo not shown)
Ki (Recombinant human Src; [6]): 0.62 µM

COc1ccc(-c2nn(CC(Cl)c3ccccc3)c3ncnc(N)c23)cc1 (stereo not shown)
Ki (recombinant Fyn; [5]): 1.49 µM

CCSc1nc(Nc2cccc(O)c2)c2cnn(CC(C)c3ccccc3)c2n1 (stereo not shown)
Ki (Recombinant human Src; [6]): 0.11 µM | Papp [2]: 4.91 10^−6 cm/sec

ClC(Cn1ncc2c(Nc3ccccc3)nc(SC3CCCC3)nc21)c1ccccc1 (stereo not shown)
Ki (Recombinant human Src; [6]): 0.12 µM | Metabolic Stab. [1]: 94% | Papp [2]: 13 10^−6 cm/sec

CC(Cn1ncc2c(Nc3cccc(Cl)c3)nc(SCCN3CCOCC3)nc21)c1ccccc1 (stereo not shown)
Ki (Recombinant human Src; [6]): 0.97 µM | Papp [2]: 5.51 10^−6 cm/sec

ClC(Cn1ncc2c(NCCc3ccccc3)nc(SCCN3CCOCC3)nc21)c1ccccc1 (stereo not shown)
Ki (recombinant Fyn): > 100 µM

CCCNc1nc(SCCN2CCOCC2)nc2c1cnn2CC(Cl)c1ccccc1 (stereo not shown) [Si109, 1-(2-chloro-2-phenylethyl)-6-((2-morpholinoethyl)thio)-N-propyl-1H-pyrazolo[3,4-d]pyrimidin-4-amine]
Ki (recombinant Fyn): 7.5 to 16 µM

CSc1nc(NCCc2cccc(Cl)c2)c2cnn(/C=C/c3ccccc3)c2n1 [Si215, N-[2-(3-chlorophenyl)ethyl]-6-(methylthio)-1-[2-phenylvinyl]-1H-pyrazolo[3,4-d]pyrimidin-4-amine]
Ki (recombinant Fyn): 7.5 to 16 µM

CSc1nc(Nc2cccc(F)c2)c2cnn(CCc3ccccc3)c2n1
Ki (Recombinant human Src; [6]): 1.06 µM | Papp [2]: 9.33 10^−6 cm/sec

ClC(Cn1ncc2c(NCCc3ccccc3)nc(SC3CCCC3)nc21)c1ccccc1 (stereo not shown)
Ki (recombinant Fyn): > 100 µM

CCC(C)Sc1nc(NCCc2ccccc2)c2cnn(CC(Cl)c3ccccc3)c2n1 (stereo not shown) [drawing 196]
Ki (recombinant Fyn): > 100 µM

CC(Cn1ncc2c(Nc3cccc(O)c3)nc(SCCN3CCOCC3)nc21)c1ccccc1.Cl (stereo not shown) [Si329, 3-{[6-[(2-Morpholin-4-ylethyl)thio]-1-(2-phenylpropyl)-1H-pyrazolo[3,4-d]pyrimidin-4-yl]amino}phenol hydrochloride]
H2O Solubility (Water solubility assay): 1 µg/mL | Metabolic Stab. [1]: 99% | Papp [2]: 6.81 10^−6 cm/sec

Clc1cccc(Nc2nc(SCCN3CCOCC3)nc3c2cnn3CCc2ccccc2)c1
Ki (Recombinant human Src; [6]): 1.2 µM | Papp [2]: 3.50 10^−6 cm/sec

CC(Cn1ncc2c(Nc3ccccc3)nc(SCCN3CCOCC3)nc21)c1ccccc1 (stereo not shown)
Ki (Recombinant human Src; [6]): 1.44 µM | Papp [2]: 3.66 10^−6 cm/sec

Cl.Oc1cccc(Nc2nc(SCCN3CCOCC3)nc3c2cnn3CCc2ccccc2)c1 [Si332, 3-{[6-[(2-Morpholin-4-ylethyl)thio]-1-(2-phenylethyl)-1H-pyrazolo[3,4-d]pyrimidin-4-yl]amino}phenol hydrochloride]
H2O Solubility (Water solubility assay): 97 µg/mL | solubility value (Water solubility assay; aqueous): 97 µg/mL | Metabolic Stab. [1]: 97% | Papp [2]: 6.38 10^−6 cm/sec

Fc1ccc(CNc2nc(SCCN3CCOCC3)nc3c2cnn3CC(Cl)c2ccccc2)cc1 (stereo not shown) [drawing 193]
Ki (recombinant Fyn; [5]): 15.5 µM

CCC(C)Sc1nc(NCc2ccccc2)c2cnn(CC(Cl)c3ccccc3)c2n1 (stereo not shown) [drawing 195]
Ki (recombinant Fyn): > 100 µM

ClC(Cn1ncc2c(NCc3ccccc3)ncnc21)c1ccccc1 (stereo not shown) [Si3]
Ki (recombinant Fyn; read-out: Ki Fyn): 3.5 µM

CSc1nc(Nc2cccc(O)c2)c2cnn(CCc3ccccc3)c2n1
Ki (Recombinant human Src; [6]): 0.62 µM | Papp [2]: 5.24 10^−6 cm/sec

CSc1nc(Nc2ccccc2)c2cnn(CCc3ccccc3)c2n1
Ki (Recombinant human Src; [6]): 1.46 µM | Metabolic Stab. [1]: 90% | Papp [2]: 7.60 10^−6 cm/sec

CCSc1nc(Nc2cccc(Br)c2)c2cnn(CC(C)c3ccccc3)c2n1 (stereo not shown)
Ki (Recombinant human Src): ~0.1 µM | Ki (Recombinant human Src; [6]): 0.1 µM | Papp [2]: 2.03 10^−6 cm/sec

CC(Cn1nc(-c2ccc3[nH]ccc3c2)c2c(N)ncnc21)c1ccccc1 (stereo not shown)
Ki (recombinant Fyn; [5]): 1.62 µM

CCSc1nc(Nc2cccc(Cl)c2)c2cnn(CC(C)c3ccccc3)c2n1 (stereo not shown)
Ki (Recombinant human Src; [6]): 0.55 µM | Papp [2]: 3.81 10^−6 cm/sec

Fc1ccc(CNc2nc(SCCN3CCOCC3)nc3c2cnn3CC(Cl)c2ccccc2)cc1 (stereo not shown) [Si180, 1-(2-chloro-2-phenylethyl)-N-(4-fluorobenzyl)-6-((2-morpholinoethyl)thio)-1H-pyrazolo[3,4-d]pyrimidin-4-amine]
Ki (recombinant Fyn): 7.5 to 16 µM

CCCCSc1nc(Nc2cccc(Cl)c2)c2cnn(CC(Cl)c3ccccc3)c2n1 (stereo not shown) [Si174]
Ki (recombinant Fyn; read-out: Ki Fyn): 1.4 µM

CNc1nc(SC)nc2c1c(-c1ccccc1)nn2CCc1ccccc1
Ki (recombinant Fyn): > 10 µM

CCCCSc1nc(Nc2cccc(O)c2)c2cnn(CC(Cl)c3ccccc3)c2n1 (stereo not shown)
Ki (Recombinant human Src; [6]): 0.13 µM | Papp [2]: 3.43 10^−6 cm/sec

Fc1cccc(Nc2nc(SC3CCCC3)nc3c2cnn3CC(Cl)c2ccccc2)c1 (stereo not shown) [Si170, 1-(2-Chloro-2-phenylethyl)-6-(cyclopentylthio)-N-(3-fluorophenyl)-1H-pyrazolo[3,4-d]pyrimidin-4-amine]
Ki (Recombinant human Src; read-out: Ki c-Src): ~0.1 µM

CC(Cn1ncc2c(Nc3cccc(F)c3)nc(SCCN3CCOCC3)nc21)c1ccccc1 (stereo not shown)
Ki (Recombinant human Src; [6]): 2.34 µM | Papp [2]: 6.51 10^−6 cm/sec

Fc1cccc(Nc2nc(SC3CCCC3)nc3c2cnn3CC(Cl)c2ccccc2)c1 (stereo not shown) [drawing 191, reference compound]
Ki (recombinant Fyn): > 100 µM

CCCCSc1nc(NCCc2ccccc2)c2cnn(CC(Cl)c3ccccc3)c2n1 (stereo not shown)
Ki (recombinant Fyn): > 100 µM

CC(=O)c1ccc(-c2nn(CC(C)c3ccccc3)c3ncnc(N)c23)cc1 (stereo not shown) [drawing 206]
Ki (recombinant Fyn): > 10 µM

Clc1ccccc1CNc1ncnc2c1cnn2CC(Cl)c1ccc(Br)cc1 (stereo not shown) [Si221]
H2O Sol. (Log S) (Water solubility assay; Table 8): (<−8.60) log mol · L^−1 | H2O Sol. (Water solubility assay; Table 8, 20° C., 24 h): <0.01 µg/mL | PAMPA BBB (PAMPA, BBB permeability; Blood Brain Barrier PAMPA): 13.23 10^−6 cm · sec^−1 | PAMPA BBB (MR %) (PAMPA, BBB permeability): (7.3) % | Metabolic Stab. % [1]: 95.2% | PAMPA GI ([2]; Gastrointestinal PAMPA, Table 8): 8.78 10^−6 cm · sec^−1 | PAMPA GI (MR %) [2]: (21.0) %

ClC(Cn1ncc2c(NCc3ccccc3)nc(Cc3ccccc3)nc21)c1ccccc1 (stereo not shown) [Si164, N,6-dibenzyl-1-(2-chloro-2-phenylethyl)-1H-pyrazolo[3,4-d]pyrimidin-4-amine]
Ki (recombinant Fyn): 7.5 to 16 µM

CCSc1nc(Nc2cccc(F)c2)c2cnn(CC(C)c3ccccc3)c2n1 (stereo not shown)
Ki (Recombinant human Src; [6]): 0.79 µM | Metabolic Stab. [1]: 94% | Papp [2]: 1.72 10^−6 cm/sec

CSc1nc(Nc2cccc(Br)c2)c2cnn(CCc3ccccc3)c2n1
Ki (Recombinant human Src; [6]): 0.2 µM | Papp [2]: 3.26 10^−6 cm/sec

ClC(Cn1ncc2c(NCc3ccccc3)nc(Cc3ccccc3)nc21)c1ccccc1 (stereo not shown) [drawing 200]
Ki (recombinant Fyn; [5]): 13 µM

Fc1ccc(CCn2ncc3c(Nc4cccc(Cl)c4)nc(SCCN4CCOCC4)nc32)cc1 [drawing 171]
Ki (Recombinant human Src; [6]): 0.1 µM | Metabolic Stab. [1]: 97% | Papp at 5 h, 0.5 mM [2]: 2.15 ×10⁻⁶ cm/s

CC(Cn1nc(-c2ccc(Cl)cc2)c2c(N)ncnc21)c1ccccc1 (stereo not shown) [Si337, 3-(4-Chlorophenyl)-1-(2-phenylpropyl)-1H-pyrazolo[3,4-d]pyrimidin-4-amine]
Ki (recombinant Fyn): 0.78 µM | decreased Fyn activity on substitution of chlorine by methyl in N1 side chain (recombinant Fyn; Si312 vs Si244, Si337 vs Si308, Si338 vs Si309): about 10 fold

CCCNc1nc(SCCN2CCOCC2)nc2c1cnn2CC(Cl)c1ccccc1 (stereo not shown) [drawing 192]
Ki (recombinant Fyn; [5]): 8.15 µM
